Values joined by “and” are separate entries in the source; they are usually repeats but may differ in a detail not shown here. Equal values may be shown once. Active and inactive are the calls of the source. How the source made its calls: active means viability on the fitted dose curve at most 10% of control; inactive means the rest.
System: 817829-284-R-J1-PDC spheroids with HUVEC/MSC, viability
Assay: Anticancer human tumor 817829-284-R-J1-PDC patient-derived colon adenocarcinoma cell line growth inhibition [TAK]
Settings: for viability, T/C: stronger effect = lower value
Excerpt: Combinatorial screen of targeted agents with TAK-243 and ipatasertib in multi-cell type tumor spheroids
A high-throughput screen of multi-cell type tumor spheroids was designed to identify active combinations of targeted small molecules and TAK-243 or ipatasertib. Complex spheroids include a stromal component modeled by human endothelial cells (HUVEC) and fibroblasts modeled by human mesenchymal stem cells (MSCs). The concentration ranges selected for each drug and investigational agent were based upon clinically achievable concentrations if the clinical Cmax of the agent was known.
Compounds. The drugs and investigational agents: TAK-243 (785004), ipatasertib (767898), everolimus (733504), selumetinib (741078), bortezomib (756655), trametinib (758246), ixazomib (758254), vemurafenib (761431), dabrafenib (764134), sapanisertib (764658), alpelisib (765974), and copanlisib (816437), were obtained from the National Cancer Institute (NCI) Developmental Therapeutics Program Chemical Repository. The FDA-approved anticancer drug set is available from the NCI Developmental Therapeutics Program. […] The stock solutions were prepared in dimethyl sulfoxide (DMSO, Sigma-Aldrich, St. Louis, MO, cat. D2650) at 800-fold the tested concentration and stored at -70 degrees C prior to their use. All drugs and investigational agents were tested over a range starting from a high concentration at or near the clinical Cmax and decreasing in half-log increments. If the clinical Cmax for an agent had not been determined, the highest concentration tested was 10 microM.
NCI60 Cell Culture. NCI60 cell lines were obtained from the NCI Developmental Therapeutics Program Tumor Repository. For each lot of cells, the Repository performed Applied Biosystems AmpFLSTR Identifiler testing with PCR amplification to confirm consistency with the published Identifier STR profile for each cell line. Cells were kept in continuous culture for no more than 20 passages. The optimal seeding densities for each of the cell lines at each time point assessed were determined prior to performing the concentration response studies. Briefly, the NCI60 human tumor lines were grown as monolayers in RPMI 1640 medium supplemented with 10% FBS and 2 mmol/L L-glutamine.
An additional 2 lines were from the NCI60 cell line panel including melanomas, MALME-3M and SK-MEL-2. Pooled donor human umbilical vein endothelial cells (HUVEC, Lonza, cat. CC-2519) and human mesenchymal stem cells (hMSC, Lonza, cat. PT-2501) were purchased from Lonza (Walkersville, MD).
PDMR cell lines were grown in complete medium (DC medium): Dulbecco's modified Eagle's medium (DMEM)/F12 supplemented with 5% fetal bovine serum (FBS), 2 mM L-glutamine, 100 U/mL penicillin and 100 µg/ml streptomycin, 0.4 µg/ml hydrocortisone, 10 ng/ml epidermal growth factor (EGF) recombinant human protein, 24 µg/mL adenine, and 0.1 mg/mL primocin. During culture from frozen stock vials, PDMR cells were cultured in the same medium containing 10 µM Y-27632 (see Table 3). The PDCs were cultured in complete DMEM/F12 media without 10 microM Y-27632 dihydrochloride for at least two passages prior to the screen. The pooled donor HUVEC and hMSC were cultured in endothelial cell growth medium 2 (PromoCell, Heidelberg, Germany, cat. C-22011) and mesenchymal stem cell growth medium 2 (PromoCell, cat. C-28009), respectively. For all experiments, HUVEC and hMSC were used at passages </=5.
For the pre-screen, cell seeding densities were determined from a titration spanning the range from 5,000 to 313 cells per well. The mct-spheroids including 60% malignant cells, 25% HUVEC and 15% MSC dispensed as a mixture into U-bottom Ultra-Low Attachment 384-well plates (Corning, NY)
High-throughput Drug Combination Screening.
Prior to their inoculation into 384-well plates, malignant cells, HUVEC, and hMSC were removed from T flasks using TrypLE express (Thermo Fisher Scientific, cat. 12605036) and harvested by centrifugation for 5 min at 233 x g. […]

[1] = curve of first compound, second compound 0.3 µM
[2] = curve of first compound, second compound 0.949 µM
[3] = curve of first compound, second compound 3 µM
[4] = curve of first compound, second compound 9.49 µM
[5] = curve of first compound, second compound 30 µM

CC(C)CC(NC(=O)C(Cc1ccccc1)NC(=O)c1cnccn1)B(O)O (centres undefined)
5.61 nM and > 10 nM: IC50 (curve of compound)
inactive: viability, T/C (compound 31.6 pM) 102% and 95.1% | viability, T/C (compound 0.0001 µM) 99.1% and 89.3% | viability, T/C (compound 0.000316 µM) 98.6% and 94.7% | viability, T/C (compound 0.001 µM) 89.5% and 98.6% | viability, T/C (compound 0.00316 µM) 103% and 99.9%

CC(=O)Nc1cccc(-n2c(=O)n(C3CC3)c(=O)c3c(Nc4ccc(I)cc4F)n(C)c(=O)c(C)c32)c1 + CC(C)NCC(C(=O)N1CCN(c2ncnc3c2C(C)CC3O)CC1)c1ccc(Cl)cc1
0.154 nM: IC50 [1]
inactive: viability, T/C (second compound 0.3 µM, first compound 94.9 pM) 60% | viability, T/C (second compound 0.3 µM, first compound 0.0003 µM) 36.2% | viability, T/C (second compound 0.3 µM, first compound 0.000949 µM) 22.1% | viability, T/C (second compound 0.3 µM, first compound 0.003 µM) 24.3% | viability, T/C (second compound 0.3 µM, first compound 0.00949 µM) 11.9% | viability, T/C (second compound 0.949 µM, first compound 94.9 pM) 19.3% | viability, T/C (second compound 0.949 µM, first compound 0.0003 µM) 19.1% | viability, T/C (second compound 0.949 µM, first compound 0.000949 µM) 13.8% | viability, T/C (second compound 0.949 µM, first compound 0.003 µM) 12.8% | viability, T/C (second compound 0.949 µM, first compound 0.00949 µM) 11.4% | viability, T/C (second compound 0.949 µM, first compound 0.03 µM) 10.6%
active: viability, T/C (second compound 0.3 µM, first compound 0.03 µM) 7.59% | viability, T/C (second compound 3 µM, first compound 94.9 pM) 9.84% | viability, T/C (second compound 3 µM, first compound 0.0003 µM) 8.37% | viability, T/C (second compound 3 µM, first compound 0.000949 µM) 8.93% | viability, T/C (second compound 3 µM, first compound 0.003 µM) 8.79% | viability, T/C (second compound 3 µM, first compound 0.00949 µM) 7.98% | viability, T/C (second compound 3 µM, first compound 0.03 µM) 7.61% | viability, T/C (second compound 9.49 µM, first compound 94.9 pM) 6.42% | viability, T/C (second compound 9.49 µM, first compound 0.0003 µM) 5.85% | viability, T/C (second compound 9.49 µM, first compound 0.000949 µM) 5.02% | viability, T/C (second compound 9.49 µM, first compound 0.003 µM) 5.15% | viability, T/C (second compound 9.49 µM, first compound 0.00949 µM) 5.13% | viability, T/C (second compound 9.49 µM, first compound 0.03 µM) 4.15% | viability, T/C (second compound 30 µM, first compound 94.9 pM) 4.66% | viability, T/C (second compound 30 µM, first compound 0.0003 µM) 4.56% | viability, T/C (second compound 30 µM, first compound 0.000949 µM) 3.15% | viability, T/C (second compound 30 µM, first compound 0.003 µM) 3.45% | viability, T/C (second compound 30 µM, first compound 0.00949 µM) 2.76% | viability, T/C (second compound 30 µM, first compound 0.03 µM) 2.65%
< 0.0949 nM: IC50 [2] | IC50 [3] | IC50 [4] | IC50 [5]

CC(C)(C)c1nc(-c2cccc(NS(=O)(=O)c3c(F)cccc3F)c2F)c(-c2ccnc(N)n2)s1
inactive: viability, T/C (compound 0.0316 µM) 98.1% and 94% | viability, T/C (compound 0.1 µM) 87.5% and 82.2% | viability, T/C (compound 0.316 µM) 54.2% and 63.3% | outcome (compound 1 µM) | viability, T/C (compound 1 µM) 31% | viability, T/C (compound 3.16 µM) 64.7% and 54.7% | viability, T/C (compound 10 µM) 46.4% and 50.4%

CC(C)n1nc(-c2ccc3oc(N)nc3c2)c2c(N)ncnc21
39.4 nM and 50 nM: IC50 (curve of compound)
inactive: viability, T/C (compound 0.000316 µM) 101% and 104% | viability, T/C (compound 0.001 µM) 102% and 99% | viability, T/C (compound 0.00316 µM) 101% and 102% | viability, T/C (compound 0.01 µM) 93% and 92.9% | viability, T/C (compound 0.0316 µM) 56.8% and 61.2% | viability, T/C (compound 0.1 µM) 21.3% and 33.1%

Cn1cnc2c(F)c(Nc3ccc(Br)cc3Cl)c(C(=O)NOCCO)cc21
inactive: viability, T/C (compound 0.00949 µM) 89.3% and 94.4% | viability, T/C (compound 0.03 µM) 86.4% and 83.3% | viability, T/C (compound 0.0949 µM) 79% and 79.5% | viability, T/C (compound 0.3 µM) 72% and 66.6% | viability, T/C (compound 0.949 µM) 55.7% and 53.5% | viability, T/C (compound 3 µM) 25.6% and 20.5%
1150 nM and 953 nM: IC50 (curve of compound)

CC(C)CC(NC(=O)CNC(=O)c1cc(Cl)ccc1Cl)B1OC(=O)CC(CC(=O)O)(C(=O)O)O1 (centres undefined)
inactive: viability, T/C (compound 0.000316 µM) 106% and 97.9% | viability, T/C (compound 0.001 µM) 107% and 100% | viability, T/C (compound 0.00316 µM) 111% and 99.2% | viability, T/C (compound 0.01 µM) 103% and 105%
3.63% and 22.3%: viability, T/C (compound 0.0316 µM)
18.5 nM and 21 nM: IC50 (curve of compound)
active: viability, T/C (compound 0.1 µM) 0.47% and 0.3%

CC(C)n1nc(-c2ccc3oc(N)nc3c2)c2c(N)ncnc21 + CC(C)NCC(C(=O)N1CCN(c2ncnc3c2C(C)CC3O)CC1)c1ccc(Cl)cc1
inactive: viability, T/C (second compound 0.3 µM, first compound 0.000316 µM) 95.8% | viability, T/C (second compound 0.3 µM, first compound 0.001 µM) 97.5% | viability, T/C (second compound 0.3 µM, first compound 0.00316 µM) 81.4% | viability, T/C (second compound 0.3 µM, first compound 0.01 µM) 62.4% | viability, T/C (second compound 0.3 µM, first compound 0.0316 µM) 29.9% | viability, T/C (second compound 0.3 µM, first compound 0.1 µM) 18% | viability, T/C (second compound 0.949 µM, first compound 0.000316 µM) 62% | viability, T/C (second compound 0.949 µM, first compound 0.001 µM) 63.8% | viability, T/C (second compound 0.949 µM, first compound 0.00316 µM) 26.7% | viability, T/C (second compound 0.949 µM, first compound 0.01 µM) 20.4% | viability, T/C (second compound 0.949 µM, first compound 0.0316 µM) 14.1% | viability, T/C (second compound 0.949 µM, first compound 0.1 µM) 9.37% | viability, T/C (second compound 3 µM, first compound 0.000316 µM) 17.9% | viability, T/C (second compound 3 µM, first compound 0.001 µM) 22.1% | viability, T/C (second compound 3 µM, first compound 0.00316 µM) 14.9% | viability, T/C (second compound 3 µM, first compound 0.01 µM) 10.1% | viability, T/C (second compound 9.49 µM, first compound 0.000316 µM) 9.8%
active: viability, T/C (second compound 3 µM, first compound 0.0316 µM) 9.06% | viability, T/C (second compound 3 µM, first compound 0.1 µM) 7.73% | viability, T/C (second compound 9.49 µM, first compound 0.001 µM) 12.5% | viability, T/C (second compound 9.49 µM, first compound 0.00316 µM) 7.29% | viability, T/C (second compound 9.49 µM, first compound 0.01 µM) 7.54% | viability, T/C (second compound 9.49 µM, first compound 0.0316 µM) 4.98% | viability, T/C (second compound 9.49 µM, first compound 0.1 µM) 4.87% | viability, T/C (second compound 30 µM, first compound 0.000316 µM) 6.54% | viability, T/C (second compound 30 µM, first compound 0.001 µM) 6.66% | viability, T/C (second compound 30 µM, first compound 0.00316 µM) 5.92% | viability, T/C (second compound 30 µM, first compound 0.01 µM) 3.93% | viability, T/C (second compound 30 µM, first compound 0.0316 µM) 3.59% | viability, T/C (second compound 30 µM, first compound 0.1 µM) 3.29%
< 0.316 nM: IC50 [3] | IC50 [4] | IC50 [5]
15 nM: IC50 [1]
1.51 nM: IC50 [2]

Reference: PubChem BioAssay AID2060347 (Molecular Pharmacology Branch, DTP, NCI, 2025)
